Results reported in patent US20100317605A1, “THE USE OF EPIMEDIUM FLAVONES AND EFFECTIVE COMPONENTS THEREOF FOR THE PREPARATION OF MEDICAMENTS OF PROMOTING PROLIFERATIONS AND DIFFERENTIATIONS OF NERVE CELLS” (XUANWU HOSPITAL OF CAPITAL MEDICAL UNIVERSITY, priority 2007, published 2010).

Tests used:
[1] = tested on: primary cultured neural stem cells (NSC); test: Survival and proliferation of primary cultured neural stem cells (neurospheres) in medium without growth factors; assay type: cell-based, SD rats
Description: The brains were taken from neonatal 1 day SD rats under a sterile condition, and the hippocampi were isolated and placed in culture dish containing a small amount of high glucose DMEM/F12; the meninges and blood vessels were divested, and the tissue was cut into small pieces, added with 5 ml cell culture medium, lightly blown and beaten into cell suspension with flame polished Pasteur sucker, and filtered by 400 screen mesh. The ratio of living cells was counted by trypan-blue staining. After the counting, the cells were placed into a 25 ml culture flask at a density of 2×10^6 cells/ml. Basal culture medium DMEM/F12 (1:1), cofactor B27(2%) and growth factor EGF (20 ng/ml)+bFGF (10 ng)/ml) were needed for conventional culture of NSC, and the cells grew as floating spheres in the culture medium. In order to observe the effect of different concentrations of epimedium flavanoide and its effective ingredient […] on primary cultured NSC, basal culture medium DMEM/F12 (1:1) and B27(2%) were used without growth factor, and epimedium flavanoide or […] final concentration of 10, 50, 100, 200, 400 μg/ml was added respectively. Cultures were maintained at 37° C. in a humidified atmosphere of 95% air/5% CO2. The growth state of the cells was observed under inverted microscope, and the diameter of the neurospheres was measured by micro ruler. The identification of neural stem cells: the neurospheres were taken, the culture medium containing growth factor EGF and bFGF were removed, DMEM/F12 containing 10% FBS was added, and inoculated in 24-well culture plates covered with polylysine. After 16 hours of culture, nestin and doublecortin (DCX) immunocytochemical staining was performed.

neural stem cells = test: Differentiation of neural stem cells (second generation neurospheres) in medium without FBS; assay type: cell-based, SD rats
Description: The second generation of neurospheres in culture was taken, and the culture medium containing growth factors in the culture flask was removed. The neurospheres were randomly divided into two groups: (1) fetal bovine serum (FBS) control group: the culture medium was DMEM/F12+1% FBS; (2) epimedium flavanoide treatment group: the culture medium was DMEM/F12 (without FBS) added with epimedium flavanoide at a final concentration of 10, 50, 100, 200 and 400 μg/ml, respectively; (3) […] treatment group: the culture medium was DMEM/F12 (without FBS) added with […] final concentration of 10, 50, 100, 200 and 400 μg/ml, respectively. The three groups of the cells were inoculated in 24-well culture plates covered with polylysine. After 7 days of culture, the morphology of the cells was observed under inverted microscope, and fluorescent immunostaining was performed and photographed.

[2] = without fetal bovine serum, 7 days, vs FBS group, P<0.01 (FIG. 4)
[3] = without fetal bovine serum, 7 days, vs FBS group, P<0.01 (FIG. 5)

COc1ccc(-c2oc3c(CC=C(C)C)c(OC4OC(CO)C(O)C(O)C4O)cc(O)c3c(=O)c2OC2OC(C)C(O)C(O)C2O)cc1 (centres unmarked) [icarrin, 3-((6-deoxymannopyranosyl)oxo)-7-(pyranoglucosyloxo)-5-hydroxy-2-(4-methoxyphenyl)-8-(3-methyl-2-butenyl)-4H-1-benzopyran-4-one]
growth state of neurospheres ([1]; 100 μg/ml, DMEM/F12 without growth factors, 7 days (FIG. 1D)): floating neurospheres were observed | growth state and volume of neurospheres ([1]; 100 μg/ml, DMEM/F12 without growth factors, 28 days (FIG. 1E)): the neurospheres still grew well, and their volume further increased | formation of floating neurospheres ([1]; 10-400 μg/ml, DMEM/F12 without growth factors, 7 days): many floating neurospheres were formed | growth and volume of neurospheres ([1]; 100-200 μg/ml groups, without growth factors, 28 days): still grew well, but also became significantly larger in volume | diameter of neurospheres ([1]; without serum and growth factors, vs control group at 7, 14, 28 days, P<0.01 (FIG. 2)): increased gradually as the incubation time prolonged | morphology of differentiated cells (neural stem cells; 50 μg/ml, DMEM/F12 without FBS, 7 days (FIG. 3D)): the neurospheres grew well and almost completely adhered, and differentiated well | growth, adhesion and differentiation of neurospheres (neural stem cells; 50, 100 μg/ml, without FBS, 7 days): the neurospheres grew well, almost completely adhered, and differentiated well | distance of cell migration (neural stem cells; [2]): farther | length of processes of differentiated cells grown from the neurospheres (neural stem cells; [2]): longer | length of the axons of neurons (neural stem cells; [3]): longer | number of NF-200 positive cells (mature neurons) (neural stem cells; [3]): increased
